Experimental data reported in US11382918B2, “Methods for treating Huntington's Disease” (PTC Therapeutics, Inc., priority 2017, dated 2022).

Test system: Endogenous Huntingtin Protein (HTT)
Test: Endogenous Huntingtin Protein Assay (ELISA-based MSD electrochemiluminescence)
Type: cell-based
Settings: Table 1
Summary of the method: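 HTT protein in lysates was measured by electrochemiluminescence on the MSD platform. Rabbit monoclonal 5656S followed by SULFO-TAG anti-rabbit antibody served for detection after overnight 4 °C capture with MAB2166 or the polyglutamine-directed MW1 antibody.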

Structure (SMILES)	IC50 [nM]
Cc1cn2cc(-c3cc(=O)n4cc(N5CCN(CCOCCO)[C@@H](C)C5)ccc4n3)cc(F)c2n1 [compound 540, 2-(8-fluoro-2-methylimidazo[1,2-a]pyridin-6-yl)-7-{(3S)-4-[2-(2-hydroxyethoxy)ethyl]-3-methylpiperazin-1-yl}-4H-pyrido[1,2-a]pyrimidin-4-one]	1000 to 3000
Cc1cn2cc(-c3cc(=O)n4cc(N5CCNCC5)ccc4n3)ccc2n1 [compound 109, 2-(2-methylimidazo[1,2-a]pyridin-6-yl)-7-(piperazin-1-yl)-4H-pyrido[1,2-a]pyrimidin-4-one]	1000 to 3000
CCc1cc(-c2cc(=O)n3cc(N4CCN[C@@H](C)C4)ccc3n2)cn2cc(C)nc12 [compound 639, 2-(8-ethyl-2-methylimidazo[1,2-a]pyridin-6-yl)-7-[(3S)-3-methylpiperazin-1-yl]-4H-pyrido[1,2-a]pyrimidin-4-one]	3000 to 33000
CCc1nc(C)cn2nc(-c3cc(=O)n4cc(N5CCN(CCO)CC5)ccc4n3)cc12 [compound 549, 2-(4-ethyl-6-methylpyrazolo[1,5-a]pyrazin-2-yl)-7-[4-(2-hydroxyethyl)piperazin-1-yl]-4H-pyrido[1,2-a]pyrimidin-4-one]	3000 to 33000
Cc1cc(-c2cc(=O)n3cc(C4CC(C)(C)NC(C)(C)C4)cc(C)c3n2)cc2cn(C)nc12 [compound 866, 2-(2,7-dimethyl-2H-indazol-5-yl)-9-methyl-7-(2,2,6,6-tetramethylpiperidin-4-yl)-4H-pyrido[1,2-a]pyrimidin-4-one]	3000 to 33000
Cn1cc2cc(-c3cc(=O)n4cc(C5=CCNCC5)ccc4n3)ccc2n1 [compound 474, 2-(2-methyl-2H-indazol-5-yl)-7-(1,2,3,6-tetrahydropyridin-4-yl)-4H-pyrido[1,2-a]pyrimidin-4-one]	500 to 1000
CCCc1nc(C)cn2nc(-c3cc(=O)n4cc(N5CCNCC5)ccc4n3)cc12 [compound 723, 2-(6-methyl-4-propylpyrazolo[1,5-a]pyrazin-2-yl)-7-(piperazin-1-yl)-4H-pyrido[1,2-a]pyrimidin-4-one]	3000 to 33000
Cc1cn2cc(-c3ccc4nc(C5CCN(C(C)C)CC5)cc(=O)n4c3)ccc2n1 [compound 461, 7-(2-methylimidazo[1,2-a]pyridin-6-yl)-2-[1-(propan-2-yl)piperidin-4-yl]-4H-pyrido[1,2-a]pyrimidin-4-one]	3000 to 33000
Cc1cn2nc(-c3cc(=O)n4cc(N5CCN6CCC[C@@H]6C5)ccc4n3)cc2c(C)n1 [compound 337, 2-(4,6-dimethylpyrazolo[1,5-a]pyrazin-2-yl)-7-[(8aR)-hexahydropyrrolo[1,2-a]pyrazin-2(1H)-yl]-4H-pyrido[1,2-a]pyrimidin-4-one]	3000 to 33000
CN(C)c1ccc(-c2cc(=O)n3cc(C4CCNCC4)ccc3n2)cn1 [compound 465, 2-[6-(dimethylamino)pyridin-3-yl]-7-(piperidin-4-yl)-4H-pyrido[1,2-a]pyrimidin-4-one]	3000 to 33000
CCc1nc(C)cn2cc(-c3cc(=O)n4cc(N5C[C@@H](C)N[C@@H](C)C5)ccc4n3)cc12 [compound 748, 7-[(3R,5S)-3,5-dimethylpiperazin-1-yl]-2-(1-ethyl-3-methylpyrrolo[1,2-a]pyrazin-7-yl)-4H-pyrido[1,2-a]pyrimidin-4-one]	500 to 1000
COc1cc(OS(=O)(=O)C(F)(F)F)ccc1-c1cc(=O)n2cc(C3=CCN(C(=O)OC(C)(C)C)CC3)ccc2n1 [compound 848, tert-butyl 4-[2-(2-methoxy-4-{[(trifluoromethyl)sulfonyl]oxy}phenyl)-4-oxo-4H-pyrido[1,2-a]pyrimidin-7-yl]-3,6-dihydropyridine-1(2H)-carboxylate]	3000 to 33000
Cn1ccc2cc(-c3cc(=O)n4cc(N5CCNCC5)ccc4n3)cnc21 [compound 129, 2-(1-methyl-1H-pyrrolo[2,3-b]pyridin-5-yl)-7-(piperazin-1-yl)-4H-pyrido[1,2-a]pyrimidin-4-one]	3000 to 33000
O=c1cc(-c2ccn3ccnc3c2)nc2ccc(N3CCNCC3)cn12 [compound 107, 2-(imidazo[1,2-a]pyridin-7-yl)-7-(piperazin-1-yl)-4H-pyrido[1,2-a]pyrimidin-4-one]	3000 to 33000
Cc1cn2nc(-c3cc(=O)n4cc(C5CCN(CCO)CC5)ccc4n3)cc2c(C)n1 [compound 530, 2-(4,6-dimethylpyrazolo[1,5-a]pyrazin-2-yl)-7-[1-(2-hydroxyethyl)piperidin-4-yl]-4H-pyrido[1,2-a]pyrimidin-4-one]	3000 to 33000
CCN1CCC(c2cn3c(=O)cc(-c4cc5c(C)nc(C)cn5n4)nc3cn2)CC1 [compound 504, 2-(4,6-dimethylpyrazolo[1,5-a]pyrazin-2-yl)-7-(1-ethylpiperidin-4-yl)-4H-pyrazino[1,2-a]pyrimidin-4-one]	100 to 500
